# Results: US8895613B2 (priority 2013, dated 2014)
# What was measured:
# [1] = tested on: virus strain Ia/California/07/09 (H1N1); experiment: microbe, parasite or virus in culture; format: cell-based, influenza virus Ia/California/07/09 (H1N1) in MDCK cells; settings: for IC50: Influenza A virus, H1N1, MDCK
# [2] = tested on: highly pathogenic strain Ia/duck/MN/1525/81 (H5N1); experiment: microbe, parasite or virus in culture; format: cell-based, influenza virus Ia/duck/MN/1525/81 (H5N1) in MDCK cells; settings: for IC50: Influenza A virus, H5N1, MDCK
# [3] = tested on: influenza virus A/Aichi/2/69 (H3N2); design: species or system mice; settings: mouse, in vivo; for efficiency of treating influenza pneumonia in mice: po, 25 mg/kg/day
# [4] = biological target: neuraminidase of influenza virus A/California/04/09 (Influenza A virus, UniProt C3W5S3); format: biochemical; settings: for IC50: read-out: neuraminidase activity IC50
# [5] = biological target: neuraminidase of influenza virus B/Pert/211/2001 (197D) (Influenza B virus, UniProt Q3S340); format: biochemical; settings: read-out: IC50, nM (number of experiments)
# [6] = biological target: neuraminidase of influenza virus A/Aichi/2/69 (H3N2) (Influenza A virus, UniProt Q75VQ4); format: biochemical; settings: read-out: IC50, nM (number of experiments)
# [7] = biological target: neuraminidase of influenza virus A/California/07/09 (H1N1) (Influenza A virus, UniProt C3W6G3); format: biochemical; settings: read-out: IC50, nM (number of experiments)
# [8] = biological target: neuraminidase of influenza virus B/Brisbane/60/2008 (Influenza B virus, UniProt C0LT34); format: biochemical; settings: read-out: IC50, nM (number of experiments)
structure (smiles),measurement,setting,value
"CCC(CC)O[C@@H]1C=C(C(=O)O)C[C@H](N)[C@H]1NC(C)=O [A2, (3R,4R,5S)-5-amino-4-acetamido-3-(pentan-3-yloxy)cyclohex-1-enecarboxylic acid, reference compound]",IC50,[1],9900 nM
same,IC50,[2],77500 nM
"CCOC(=O)C1=C[C@@H](OC(CC)CC)[C@H](NC(=O)C(F)F)[C@@H](NC(=N)N)C1 [1.6, ethyl (3R,4R,5S)-5-guanidino-4-difluoroacetamido-3-(pentan-3-yloxy)cyclohex-1-enecarboxylate]",efficiency of treating influenza pneumonia in mice,[3],high efficiency
"CCC(CC)O[C@@H]1C=C(C(=O)OCCc2ccccc2)C[C@H](NC(=N)N)[C@H]1NC(=O)C(F)F [1.10, 2-phenylethyl (3R,4R,5S)-5-guanidino-4-(2,2-difluoroacetamido)-3-(pentan-3-yloxy)cyclohex-1-enecarboxylate]",IC50,[4],< 1 nM
"CCOC(=O)C1=C[C@@H](OC(CC)CC)[C@H](NC(=O)CF)[C@@H](NC(=N)N)C1 [1.3, ethyl (3R,4R,5S)-5-guanidino-4-fluoroacetamido-3-(pentan-3-yloxy)cyclohex-1-enecarboxylate]",efficiency of treating influenza pneumonia in mice,[3],high efficiency
"CCC(CC)O[C@@H]1C=C(C(=O)OCCOC)C[C@H](NC(=N)N)[C@H]1NC(=O)C(F)F [1.12, 2-methoxyethyl (3R,4R,5S)-5-guanidino-4-(2,2-difluoroacetamido)-3-(pentan-3-yloxy)cyclohex-1-enecarboxylate]",IC50,[4],< 1 nM
"CC(=O)NC1C(NC(=N)N)C=C(C(=O)O)OC1C(O)C(O)CO [Zan, 5-Acetamido-2,3-didehydro-3,4,5-trideoxy-4-guanidino-alpha-D-glycero-D-galacto-2-nonulopyranosonic acid, reference compound]",IC50,[1],16000 nM
same,IC50,[2],51200 nM
"CCC(CC)O[C@@H]1C=C(C(=O)OC2CCCCC2)C[C@H](NC(=N)N)[C@H]1NC(=O)C(F)F [1.9, 2-cyclohexyl (3R,4R,5S)-5-guanidino-4-(2,2-difluoroacetamido)-3-(pentan-3-yloxy)cyclohex-1-enecarboxylate]",IC50,[4],< 1 nM
"CCC(CC)O[C@@H]1C=C(C(=O)OCCc2cccnc2)C[C@H](NC(=N)N)[C@H]1NC(=O)C(F)F [1.11, 2-pyridin-3-ylethyl (3R,4R,5S)-5-guanidino-4-(2,2-difluoroacetamido)-3-(pentan-3-yloxy)cyclohex-1-enecarboxylate]",IC50,[4],< 1 nM
"CCOC(=O)C1=C[C@@H](OC(CC)CC)[C@H](NC(C)=O)[C@@H](N)C1 [Tamiflu, reference compound]",death of treated animals by the time the last animal of virus control group died,[3],prevented completely
same,weight loss of treated animals,[3],did not lose weight
"CCC(CC)O[C@@H]1C=C(C(=O)O)C[C@H](NC(=N)N)[C@H]1NC(=O)C(F)F [1.4, (3R,4R,5S)-5-guanidino-4-difluoroacetamido-3-(pentan-3-yloxy)cyclohex-1-enecarboxylic acid]",times more active than A2,[4],2.7
same,times more active than A4,[4],267
"CCC(CC)O[C@@H]1C=C(C(=O)O)C[C@H](NC(=N)N)[C@H]1NC(=O)CF [1.1, (3R,4R,5S)-5-guanidino-4-fluoroacetamido-3-(pentan-3-yloxy)cyclohex-1-enecarboxylic acid]",times more active than A2,[4],4
same,times more active than A4,[4],400
same,more active than Oseltamivir carboxylate (A2) by factor,[1],13
same,more active than Zanamivir (Zan) by factor,[1],20
same,IC50,[1],780 nM
same,"activity higher than that of Oseltamivir carboxylate, times",[2],24
same,"activity higher than that of Zanamivir (Zan), times",[2],16
same,IC50,[2],3200 nM
same,IC50,[5],2.08 nM
same,IC50,[6],0.69 nM
same,IC50,[7],0.18 nM
same,IC50,[8],1.27 nM
